These are literature values, as cited in patent US9445992B2, “Mucosal delivery compositions comprising a peptide complexed with a crown compound and/or a counter ion” (ARISGEN SA, priority 2009, dated 2016).

For the series the following is noted: in water.

For `CCCCCCCCCCCC(=O)OC[C@H](COP(=O)(O)OCC(O)CO)OC(=O)CCCCCCCCCCC` (stereo partly shown) [DLPG, dilauryloylphosphatidylglycerol], the pKa (in general, the pH at which an ionisable group is half protonated) was below 2.
